From patent publication US20030143733A1, “Tetrapeptide” (La Jolla Cancer Research Foundation, priority 1985, published 2003)

Key:
[1] = system: normal rat kidney cells (NRK); assay: Cell attachment promoting activity assay (peptide coupled via SPDP to rabbit IgG immobilized on plastic); type: cell-based; settings: freshly trypsinized NRK cells, one hour incubation
Procedure: (§1) Those peptides having a COOH-terminal cystine residue were assayed for their activity in promoting cell attachment by first attaching them via the heterobifunctional crosslinker SPDP (N-succinimidyl 3-(2-pyridyldithio) propionate, Sigma, St. Louis, Mo.) to rabbit IgG which was immobilized on plastic. The attachment assay was then carried out as described by Ruoslahti, E. et al., Methods Enzymology 82:803-831 (1981) using freshly trypsinized normal rat kidney cells (NRK). After a one hour incubation, those cells which had attached were fixed, stained and quantitated using either an Artek cell counter or a multiscan spectrophotometer. In all cases, maximum attachment was about 80-90% of the cells plated. The relative activity of each peptide is indicated by the concentration of the peptides in nmoles/ml necessary to achieve half-maximal activity, or, where accurate quantitation was not possible, by the crosses at the right of FIG. 1, and by the graph in FIG. 2.

[2] = system: attachment of cells to a fibronectin-coated substrate; assay: Inhibition of cell attachment to fibronectin-coated substrate by solubilized peptide; type: cell-based; settings: peptide in solubilized form combined with free cells
Procedure: as §1, with “In all cases, maximum attachment was about 80-90% of the cells plated.” left out
If the mechanism of cell attachment involves the recognition of the amino acid sequence of the tetrapeptide by a receptor on the cell, then it could be postulated that attachment could be inhibited by preventing this recognition by “blocking” the receptor. […] In separate experiments, various concentrations of the tetrapeptide (Arg-Gly-Asp-Ser) and a hexapeptide, Pro-Arg-Gly-Asp-Ser-Gly in a solubilized form were combined with the free cells, and attachment activity measured as above.

Substance	cell attachment promoting activity [1]	inhibition of normal attachment of cells to a fibronectin-coated substrate [2]
H-Arg-Gly-Asp-Ser-OH (RGDS; printed: Arg-Gly-Asp-Ser)	had the property of causing cell attachment	inhibit the normal attachment of cells
PRGDSG [Pro-Arg-Gly-Asp-Ser-Gly]		inhibit the normal attachment of cells
RVDSPAC [peptide with substitution of the glycine with the bulky valine residue]	abolished the activity	
